Measured values from ChEMBL document CHEMBL1133626, “GRid-INdependent descriptors (GRIND): a novel class of alignment-independent three-dimensional molecular descriptors” (J Med Chem, 2000).

Key:
[1] = biological target: T1, Corticosteroid-binding globulin (Homo sapiens) (UniProt P08185); experiment: (§1) Binding affinity to the corticosteroid-binding globulin (CBG) receptor.
T1 sequence (whole entry): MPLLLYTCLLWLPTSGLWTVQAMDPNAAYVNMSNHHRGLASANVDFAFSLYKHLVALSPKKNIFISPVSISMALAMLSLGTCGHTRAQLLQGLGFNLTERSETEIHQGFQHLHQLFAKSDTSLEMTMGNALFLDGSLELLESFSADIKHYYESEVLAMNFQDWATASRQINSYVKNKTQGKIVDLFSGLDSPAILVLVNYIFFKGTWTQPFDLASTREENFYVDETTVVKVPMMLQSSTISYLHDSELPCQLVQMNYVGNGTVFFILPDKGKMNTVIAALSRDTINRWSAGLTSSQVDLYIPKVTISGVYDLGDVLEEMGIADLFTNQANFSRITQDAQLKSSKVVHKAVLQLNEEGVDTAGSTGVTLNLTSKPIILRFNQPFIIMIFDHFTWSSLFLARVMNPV

[2] = biological target: 5-hydroxytryptamine receptor 2A (Rattus norvegicus, UniProt P14842); experiment: Kinetic inhibition constant evaluated by measuring serotonergic activity
Chain of 5-hydroxytryptamine receptor 2A (P14842 whole entry): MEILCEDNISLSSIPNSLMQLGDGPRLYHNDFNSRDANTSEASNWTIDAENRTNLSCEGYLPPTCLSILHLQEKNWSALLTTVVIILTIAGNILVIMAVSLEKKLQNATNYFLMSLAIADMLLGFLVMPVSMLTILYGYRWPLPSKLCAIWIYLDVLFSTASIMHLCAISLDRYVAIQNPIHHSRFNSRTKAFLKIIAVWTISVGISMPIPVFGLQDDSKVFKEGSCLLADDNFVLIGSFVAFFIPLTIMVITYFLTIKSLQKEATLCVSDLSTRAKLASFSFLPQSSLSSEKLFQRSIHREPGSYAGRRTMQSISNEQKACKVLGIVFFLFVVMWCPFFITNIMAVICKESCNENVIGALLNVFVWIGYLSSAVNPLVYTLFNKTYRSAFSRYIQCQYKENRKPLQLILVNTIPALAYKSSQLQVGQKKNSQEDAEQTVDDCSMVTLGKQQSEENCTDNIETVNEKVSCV

[3] = Kinetic inhibition constant was evaluated by measuring the inhibition of the glycogen phosphorylase (GP)
[4] = Binding affinity of the Corticosteroid-Binding Globulin Receptor with androsterone
[5] = Binding affinity of the Corticosteroid-Binding Globulin Receptor with corticosterone
[6] = Binding affinity of the Corticosteroid-Binding Globulin Receptor with cortisol
[7] = Binding affinity of the Corticosteroid-Binding Globulin Receptor with androstanediol
[8] = biological target: T1, Corticosteroid-binding globulin (Homo sapiens)
[9] = Binding affinity of the Corticosteroid-Binding Globulin Receptor with androstenedione
[10] = as §1
[11] = Binding affinity of the Corticosteroid-Binding Globulin Receptor with androstenediol
[12] = Binding affinity of the Corticosteroid-Binding Globulin Receptor with dehydroepiandrosterone
[13] = Binding affinity of the Corticosteroid-Binding Globulin Receptor with deoxy-corticosterone

CC(=O)[C@@]1(O)[C@H](O)C[C@H]2[C@@H]3CC=C4CC(=O)CC[C@]4(C)[C@H]3CC[C@@]21C
Log K [1]: 6.14

O=C1C(CCN2CCC(c3noc4cc(F)ccc34)CC2)CC2=CC=CC12 (centres undefined)
Ki [2]: 1.74 nM

C[C@]12C[C@H](O)[C@H]3[C@@H](CCC4=CC(=O)CC[C@@]43C)[C@@H]1CC[C@@H]2C(=O)CO
Log K [1]: 7.88

N#CC[C@@H]1O[C@H](CO)[C@@H](O)[C@H](O)[C@H]1O
pKi [3]: 2.05 | Log K [4]: 5.61

CC(=O)[C@H]1CC[C@H]2[C@@H]3CCC4=CC(=O)CC[C@]4(C)[C@H]3C(=O)C[C@]12C
Log K [1]: 6.78

NC(=O)N[C@H]1O[C@H](CO)[C@@H](O)[C@H](O)[C@H]1O
pKi [3]: 3.85 | Log K [5]: 7.88

C[C@]12CCC(=O)C=C1CC[C@@H]1[C@@H]2C(=O)C[C@@]2(C)[C@H]1CC[C@]2(O)C(=O)CO
Log K [1]: 6.89

CC(=O)[C@H]1CC[C@H]2[C@@H]3CCC4=CC(=O)CC[C@@H]4[C@H]3CC[C@]12C
Log K [1]: 7.12

COC(=O)N[C@]1(C(N)=O)O[C@H](CO)[C@@H](O)[C@H](O)[C@H]1O
pKi [3]: 4.8 | Log K [6]: 7.88

NC(=O)C1OC(CO)C(O)C(O)C1O (stereo in doubt; 2)
pKi [3]: 3.43 | Log K [7]: 5

C[C@]12CC[C@H](O)C[C@@H]1CC[C@@H]1[C@@H]2CC[C@]2(C)[C@@H](O)CC[C@@H]12
Log K [1]: 5

C[C@]12CC[C@@H]3c4ccc(O)cc4CC[C@H]3[C@@H]1CC[C@@H]2O
Log K [1]: 5

CC(=O)[C@H]1CC[C@H]2[C@@H]3CCC4=CC(=O)CC[C@]4(C)[C@H]3CC[C@]12C
Log Ki [8]: 7.38 mM

C[C@]12CC[C@H]3[C@@H](CCC4=CC(=O)CC[C@@]43C)[C@@H]1CC[C@@H]2O
Log K [1]: 6.72

COC(=O)C1OC(CO)C(O)C(O)C1O (centres undefined)
Log K [9]: 5.76 | pKi [3]: 2.55

C[C@]12CC[C@H]3[C@@H](CCC4=CC(=O)CC[C@@H]43)[C@@H]1CC[C@@H]2O
Log K [1]: 7.2

C[C@]12CC[C@H](O)CC1=CC[C@@H]1[C@@H]2CC[C@]2(C)C(=O)CC[C@@H]12
Log K [1]: 5

C[C@]12C=CC(=O)C=C1CC[C@@H]1[C@@H]2[C@@H](O)C[C@@]2(C)[C@H]1CC[C@]2(O)C(=O)CO
Log K [10]: 6.72

C[C@]12CCC(=O)C=C1CC[C@@H]1[C@@H]2[C@@H](O)C[C@@]2(C)[C@H]1CC[C@]2(O)C(=O)CO
Log K [1]: 7.88

O=C(CCCN1CCN(CCC2CC3=CC=CC3C2=O)CC1)c1ccc(F)cc1 (centres undefined)
Ki [2]: 42.7 nM

CC(=O)[C@H]1CC[C@H]2[C@@H]3CC=C4C[C@@H](O)CC[C@]4(C)[C@H]3CC[C@]12C
Log K [1]: 5.25

C[C@]12CCC(=O)C=C1CC[C@@H]1[C@@H]2CC[C@]2(C)C(=O)CC[C@@H]12
Log K [1]: 5.76

C[C@]12C[C@@H](O)[C@H]3[C@@H](CCC4=CC(=O)CC[C@@]43C)[C@@H]1CC[C@@H]2C(=O)CO
Log K [10]: 6.78

NC(=O)C1OC(CO)C(O)C(O)C1O (stereo in doubt; 3)
pKi [3]: 3.36 | Log K [11]: 5

NN1C(=O)N[C@@]2(O[C@@H](CO)[C@@H](O)[C@H](O)[C@@H]2O)C1=O
Log K [12]: 5 | pKi [3]: 3.84

C[C@@H]1C[C@@]2(C)C(=CC1=O)CC[C@H]1[C@@H]3CC[C@](O)(C(=O)CO)[C@@]3(C)C[C@H](O)[C@@]12F
Log K [1]: 5.8

C[C@]12CCC(=O)C=C1CC[C@@H]1[C@@H]2[C@@H](O)C[C@]2(C=O)[C@@H](C(=O)CO)CC[C@@H]12
Log K [10]: 6.28

O=C(c1ccc(F)cc1)C1CCN(CCC2CC3=CC=CC3C2=O)CC1 (centres undefined)
Ki [2]: 7.08 nM

C[C@]12CC[C@@H]3c4ccc(O)cc4CC[C@H]3[C@@H]1C[C@@H](O)[C@@H]2O
Log K [1]: 5

CC(=O)[C@@]1(O)CC[C@H]2[C@@H]3CCC4=CC(=O)CC[C@]4(C)[C@H]3CC[C@@]21C
Log K [1]: 7.74

C[C@]12CCC(=O)C=C1CC[C@@H]1[C@@H]2CC[C@@]2(C)[C@H]1CC[C@]2(O)C(=O)CO
Log K [10]: 7.88

CC(=O)[C@@]1(O)CC[C@H]2[C@@H]3CC[C@@H]4C[C@H](O)CC[C@]4(C)[C@H]3CC[C@@]21C
Log K [1]: 5

C[C@]12CC[C@H]3[C@@H](CCC4=CC(=O)CC[C@@]43C)[C@@H]1CC[C@@H]2C(=O)CO
Log K [1]: 7.65

O=C1CNC(=O)[C@@]2(N1)O[C@@H](CO)[C@@H](O)[C@H](O)[C@@H]2O
pKi [3]: 4.22 | Log K [13]: 7.65

CC(=O)OCC(=O)[C@@]1(O)CC[C@H]2[C@@H]3CCC4=CC(=O)CC[C@]4(C)[C@H]3[C@@H](O)C[C@@]21C
Log K [1]: 7.55

CC(=O)C1[C@H](C)CC2C3CC=C4CC(=O)CCC4(C)C3CCC21C (some centres undefined)
Log K [1]: 6.25
